Results reported in patent US20150182482A1, “EPROTIROME FOR USE IN THE PREVENTION AND/OR TREATMENT OF HAIR DISORDERS AND COMPOSITIONS THEREOF” (DR. AUGUST WOLFF GMBH & CO. KG ARZNEIMITTEL, priority 2012, published 2015).
“Also recorded” adds a separate entry of the source. Read-outs that look alike come from different tables or passages of the source. Each block holds one molecule with its values, some of them ahead of it.

Key:
human hair follicles [1] = conditions: cited from earlier work
TGFβ2 = TGFβ2 immunoreactivity in cultured hair follicles; format: cell-based, human
Description: (§1) Normal human scalp skin was obtained from women undergoing routine face-lift surgery after informed consent.
(§2) Test system: Philpott model (Philpott et al., J. Cell. Mol. Life Sci., 1990, 97: 463-471)
(§3) Mircodissected anagen VI hair follicles in 3 or 4 groups (3 HFs/well) were cultured at 6 days in a 24-well plate with 500 μl Williams E medium (Biochrom) supplemented with 100 IU/ml penicillin, 10 μg/ml streptomycin (Gibco), 10 μg/ml insulin (Sigma), 10 ng/ml hydrocortisone (Sigma) and 2 mmol/1 L-glutamine (Invitrogen).
(§4) Eprotirome, TRIAC, PF-277343 (1 pM, 100 pM) or vehicle were administered once for each change of medium (i.e. every 48 h).
(§5) Anagen HFs and HFs were immediately embedded in Shandon Cryomatrix and snap frozen in liquid nitrogen. Six longitudinal sections of HFs were processed for immunohistological stainings.

[2] = test system: human scalp hair follicles; experiment: HF cycle staging in human hair follicle organ culture; format: cell-based; conditions: for hair cycle staging, macroscopic and microscopic, overall comparison: summary of the examples
Description: as §1, §2, §3, §4, §5
HF cycle staging was carried out according to defined morphological criteria, and the percentage of HFs in anagen and early, mid, or late catagen was determined.

[3] = test system: hair matrix keratinocytes; experiment: Ki-67/TUNEL double staining, proliferation and apoptosis measurements; format: cell-based, human
Description: as §1, §3, §5
To evaluate apoptotic cells in co-localization with a proliferation marker Ki-67, a Ki-67/terminal dUTP nick-end labelling (TUNEL) double-staining method was used. […] TUNEL-positive cells were visualized by an antidigoxigenin fluorescein isothiocyanate-conjugated antibody (ApopTag kit), whereas Ki-67 was detected by a rhodamine-labelled goat antimouse antibody (Jackson ImmunoResearch, West Grove, Pa.). Negative controls were performed by omitting terminal deoxynucleotidyl transferase and the Ki-67 antibody. Counterstaining was performed with 4′,6-diamidino-2-phenylindole (DAPI) (Roche Molecular Biochemicals GmbH, Mannheim, Germany). Quantitative immunohistomorphometry was performed; Ki-67-, TUNEL-, or DAPI-positive cells were counted in a previously defined reference region of the HF matrix and epidermis, and the percentage of Ki-67/TUNEL-positive cells was determined.

[4] = test system: tyrosinase activity of hair follicles; experiment: Tyrosinase activity of cultured hair follicles; format: cell-based, human
Description: as §1, §2, §3, §4, §5

MTCO1 = MTCO1 protein expression (immunoreactivity) in cultured hair follicles; format: cell-based, human
Description: as §1, §2, §3, §4, §5

hair growth [5] = conditions: monkey; cited from earlier work
[6] = test system: human scalp hair follicles; experiment: Hair shaft elongation in human hair follicle organ culture (Philpott model); format: cell-based
Description: as §1, §3
Hair shaft length measurements of HFs were performed every second day on individual HFs using a Zeiss inverted binocular microscope with an eyepiece measuring graticule.

hair growth [7] = conditions: mouse; cited from earlier work
[8] = test system: human scalp hair follicles; experiment: Hair pigmentation, quantitative Masson-Fontana melanin staining of cultured hair follicles; format: cell-based; conditions: for melanin content, overall comparison: summary of the examples
Description: as §1, §2, §3, §4, §5
For histochemical visualization of melanin, Masson-Fontana staining was performed on frozen sections. Melanin was stained as brown dots and the degree of pigmentation was assessed by quantitative Masson-Fontana as described (Ito et al., Br. J. Dermatol, 2005, 152: 623-631). This method is a very sensitive and reliable indicator of changes in melanin synthesis, as shown by standard tyrosinase expression and enzyme activity assays (Kauser et al, FASEB J. 2006, 20:882-95). Staining intensity was analyzed in a defined reference region of the HF pigmentary unit and, using the ImageJ software (National Institute of Health).

[9] = test system: outer root sheath cells, dermal papilla cells, and fibrous sheath cells of hair follicles; conditions: all these types of cells, significantly; cited from earlier work
CD rats = conditions: topical; cited from earlier work
alopecia areata = conditions: topical; cited from earlier work
human hair follicles [10] = conditions: physiological level of free T3; cited from earlier work
SKH-1 mice = conditions: topical; cited from earlier work
Stability = format: physicochemical
[11] = Penetration in human skin; format: in vitro ADME
[12] = cited from earlier work
[13] = person two, after 6 days, macroscopically and microscopically
[14] = occipital scalp HFs, person two, 6 days culture
[15] = person two, 100 pM, anagen HFs and all HFs

SMILES: N[C@@H](Cc1cc(I)c(Oc2cc(I)c(O)c(I)c2)c(I)c1)C(=O)O [T4, 3,5,3′,5′-tetraiodo-L-thyronine]
anagen duration (human hair follicles [1]): prolong | apoptosis of hair matrix keratinocytes (Ki-67/TUNEL staining) (human hair follicles [1]): inhibited | hair matrix keratinocyte proliferation (Ki-67/TUNEL staining) (human hair follicles [1]): stimulated | hair shaft elongation in vitro (human hair follicles [1]): did not translate to a significantly altered hair shaft elongation | melanin synthesis in human hair follicles (human hair follicles [1]): stimulate

tyrosinase activity ([4]; person three, 100 pM, anagen HFs and all HFs): slightly upregulated | tyrosinase activity upregulation, significance ([4]; person three, 100 pM, only anagen HFs): significant
SMILES: Cc1cc(-n2ncc(=O)[nH]c2=O)cc(C)c1Oc1ccc(O)c(Cc2ccc(F)cc2)c1 [PF-277343]
TGFβ2 immunoreactivity (TGFβ2; person three, 100 pM concentration group): significantly reduced | macroscopic HF assessment (hair cycle staging) ([2]; person three, 1 pM): prematurely induces catagen | quantitative hair cycle histomorphometry ([2]; person three, 1 pM and 100 pM): promoted premature catagen development | hair cycle staging, macroscopic and microscopic, overall comparison [2]: caused hair follicles to enter the catagen phase prematurely | proliferation (Ki-67) of hair matrix keratinocytes ([3]; person three): did not show effects | apoptosis (TUNEL) ([3]; person three, 100 pM): slightly inhibited (not significant) | MTCO1 protein expression (MTCO1; person three): no significant change | efficacy in hair growth model (hair growth [5]): efficacious | hair shaft elongation ([6]; occipital scalp HFs, person three, 1 pM): slight (not significant) tendency towards inhibition | hair shaft elongation, overall comparison ([6]; summary of the examples): tendency of a slight inhibition | efficacy in hair growth model (hair growth [7]): efficacious | melanisation ([8]; person three, 1 pM and 100 pM, all HFs): significantly decreased | melanin production ([8]; person three, 100 pM, only anagen HFs (significant)): strong reduction | melanin content, overall comparison [8]: decrease in melanin content

SMILES: N[C@@H](Cc1cc(I)c(Oc2ccc(O)c(I)c2)c(I)c1)C(=O)O [T3, 3,5,3′-triiodo-L-thyronine]
proliferation and/or metabolism of hair follicle cell types [9]: stimulated | epidermal proliferation, dermal thickening, and hair growth (CD rats): stimulate | efficacy versus placebo (alopecia areata): not more effective than placebo | safety (alopecia areata): safe | anagen duration (human hair follicles [1]): prolong | apoptosis of hair matrix keratinocytes (Ki-67/TUNEL staining) (human hair follicles [1]): inhibited | hair shaft elongation in vitro (human hair follicles [1]): did not translate to a significantly altered hair shaft elongation | melanin synthesis in human hair follicles (human hair follicles [1]): stimulate | human hair survival in vitro (human hair follicles [10]): significantly enhanced | epidermal proliferation, dermal thickening, and hair growth (SKH-1 mice): stimulate

SMILES: O=C(O)Cc1cc(I)c(Oc2ccc(O)c(I)c2)c(I)c1 [TRIAC, Triiodothyroacetic Acid]
TGFβ2 immunoreactivity reduction, significance (TGFβ2; person two, 1 pM and 100 pM concentration groups): significant effect | TGFβ2 immunoreactivity (TGFβ2; person two, all concentrations): reduced | anagen (prolongation) [2, 13]: prolonged anagen | catagen development [2, 13]: inhibited catagen development | hair cycle staging, macroscopic and microscopic, overall comparison [2]: able to prolong anagen and to inhibit catagen development | apoptosis (TUNEL) ([3]; person two): inhibited (not significant) | proliferation (Ki-67) of hair matrix keratinocytes ([3]; person two): slightly upregulated (not significant) | tyrosinase activity ([4]; person two, all HFs): downregulated | tyrosinase activity downregulation, significance ([4]; person two, all HFs, 0.1 pM and 1 pM groups): significant | MTCO1 protein expression (MTCO1; person two): no significant change | stability (Stability): low stability | hair shaft elongation (inhibition), significance ([6]; occipital scalp HFs, person two, 1 pM): significant effect | hair shaft elongation [6, 14]: slight inhibition | penetration in human skin [11]: inferior penetration | hair follicle melanin content ([8]; person two, all HFs): No significant effects | melanin content, overall comparison [8]: no effects

tyrosinase activity ([4]; person one, 100 pM group): upregulated | tyrosinase activity upregulation, significance ([4]; person one, 100 pM, all HFs): significant | tyrosinase activity [4, 15]: slightly upregulated | tyrosinase activity, overall ([4]; summary of the examples): upregulation
SMILES: CC(C)c1cc(Oc2c(Br)cc(NC(=O)CC(=O)O)cc2Br)ccc1O [eprotirome, 3-[[3,5-dibromo-4-[4-hydroxy-3-(1-methylethyl)phenoxy]phenyl]amino]-3-oxo-propanoic acid]
TGFβ2 immunoreactivity (TGFβ2; person one): significantly reduced | TGFβ2 immunoreactivity reduction, concentration dependence (TGFβ2; person one, 100 pM): strongest effect | TGFβ2 immunoreactivity (TGFβ2; person two, 1 pM concentration group): significantly reduced | expression of TGFβ2, overall (TGFβ2; summary of the examples): significant reduced expression | effects on the heart ([12]; clinical trial in humans): did not provoke detectable effects | safety and tolerability ([12]; clinical trial in humans): safe and well tolerated | lowering of total and LDL cholesterol levels ([12]; moderately overweight and hypercholesterolemic subjects): up to 40% | duration of anagen, macroscopically ([2]; person one): no major effect | hair cycle histomorphometry ([2]; person one): clear anagen-prolonging effect | number of anagen HFs [2, 13]: significantly increased | number of catagen HFs [2, 13]: decreased | hair cycle staging, macroscopic and microscopic, overall comparison [2]: able to prolong anagen and to inhibit catagen development; also recorded: clearly prolongs anagen | proliferation of the hair matrix keratinocytes (Ki-67) ([3]; person one, 100 pM): increased proliferation | apoptosis (TUNEL) ([3]; person two): no change | proliferation (Ki-67) of hair matrix keratinocytes ([3]; person two): tendentially upregulated | proliferation of hair matrix keratinocytes, overall ([3]; summary of the examples): increased proliferation | MTCO1 immunoreactivity (MTCO1; person one): significantly up-regulates | MTCO1 protein expression (MTCO1; person two): no significant change | hair shaft elongation ([6]; occipital scalp HFs, person one, both doses (1 pM, 100 pM)): slightly stimulated | hair shaft elongation [6, 14]: did not significantly affect | melanin content ([8]; person one, 100 pM, anagen HFs and all HFs): slightly increased | melanin content increase, significance ([8]; person one, 100 pM, only anagen HFs): significant | melanisation [8, 15]: slightly increased | melanin content, overall comparison [8]: increased melanin content
